The text below walks through data of US7915245B2, “Methods and compositions of trail-death receptor agonists/activators” (The Board of Regents of the University of Texas System, priority 2007, dated 2011).

The test system of data set [1] is human normal prostate epithelial cells (PrECs). Put plainly: XTT cell viability, normal prostate epithelial cells. The data set is classed as cell-based. Conditions: 72 h. The protocol: FIG. 22. DRAs have no effect on cell viability in human normal prostate epithelial cells (PrECs). PrECs were treated with DRA11, DRA9 and DRA9S for 72 h. At the end of incubation period, cell viability was measured by XTT assay. Data represent the mean±S.D. Control refers to group treated with DMSO (0.01%).
(§1) FIGS. 60 A, B & C. DRAs has no effect on cell viability of human normal mammary, prostate and lung epithelial cells. Human normal mammary (FIG. 60A), prostate (FIG. 60B) and lung (FIG. 60C) epithelial cells were treated with DRA11 (0-25 μM) for 72 h, and cell viability was measured by XTT assay.
(§2) XTT Assay. Cells (1×10^4 cells per well) were seeded in 96-well plates (flat bottom), and treated with death receptor agonists/activators/small molecules in the presence or absence of TNF-related apoptosis inducing ligand (TRAIL). Plates were incubated for various time points at 37° C. and 5% CO2. […] The spectrophotometric absorbance of the sample was measured using a microtitre plate (ELISA) reader. The wavelength to measure absorbance of the formazan product was 450 nm, and the reference wavelength was 650 nm.
PrECs were treated with DRA11, DRA9 and DRA9S for 72 h. At the end of incubation period, cell viability was measured by XTT assay. […]
For orientation: Tetrazolium dyes change colour on reduction, which living cells bring about.

For data set [2], the system named is human normal mammary epithelial cells (HMECs). In words: XTT cell viability, normal mammary epithelial cells. The data set is classed as cell-based. The note with it: 72 h. The method, then: FIG. 21. DRAs have no effect on cell viability in human normal mammary epithelial cells (HMECs), HMECs were treated with DRA11, DRA9 and DRA9S for 72 h. At the end of incubation period, cell viability was measured by XTT assay. Data represent the mean±S.D. Control refers to group treated with DMSO (0.01%).
as §1, §2
HMECs were treated with DRA11, DRA9 and DRA9S for 72 h. At the end of incubation period, cell viability was measured by XTT assay. […]

The test system of data set [3] is mesothelioma MS1 cell line. In words: XTT cell viability, mesothelioma MS1. The data set is classed as cell-based. Conditions: then DRA 72 h; for effect of NFκB inhibitor MG132 on the inhibitory effect on cell viability: MG132 2.5 μM 4 h. The protocol:
FIG. 44. […] Mesothelioma MS1 cells were treated with NFκB inhibitor MG132 (2.5 μM) for 4 h followed by treatment with various concentrations of DRA11, DRA9, and DRA9S for 72 h. At the end of incubation, cell viability was measured by XTT assay. Data represent the mean±S.D.
FIG. 54. […] MS1 cells were pretreated with either control peptide (10 μM) or pan caspase inhibitor (z-VAD-fmk, 25 μM) for 2 h, followed by treatment with various doses of DRA11, DRA9 and DRA9S for 72 h. At the end of incubation, cell viability was measured by XTT assay. Data represent the mean±S.D.
(§3) XTT Assay. Cells (1×10^4 cells per well) were seeded in 96-well plates (flat bottom), and treated with death receptor agonists/activators/small molecules in the presence or absence of TNF-related apoptosis inducing ligand (TRAIL). Plates were incubated for various time points at 37° C. and 5% CO2. Before the end of the experiment, 50 μl XTT (sodium 3′[1-(phenylaminocarbonyl)-3,4-tetrazolium]-bis(4-methoxy-6-nitro) benzene sulfonic acid hydrate) labeling mixture (final concentration, 125 μM sodium XTT and 25 μM PMS) per well was added and plates were incubated for a further 4 h at 37° C. and 5% CO2. The spectrophotometric absorbance of the sample was measured using a microtitre plate (ELISA) reader. The wavelength to measure absorbance of the formazan product was 450 nm, and the reference wavelength was 650 nm.

Data set [4] has as its system prostate cancer PC-3 cells xenografted. In words: PC-3 xenograft tumor growth. The data set is classed as in vivo, Balb c nude mice. The note with it: 40 mg/kg iv, 5 days per week. The protocol:
FIG. 26. […] PC-3 cells (2×10^6 cells, in a final volume of 0.1 ml) were injected subcutaneously in the right flank of Balb c nude mice. After tumor formation (about 100 mm^3), nude mice were treated (iv) with vehicle control (0.1 ml normal saline), DRA11 (20 mg/kg, 0.1 ml volume), DRA11 (30 mg/kg, 0.1 ml volume), and DRA11 (40 mg/kg, 0.1 ml volume) everyday 5 days per week throughout the duration of the experiment. Tumor volume was calculated using the equation: (volume=length×width×depth×0.5236 mm^3). Data represent mean±S.E.
FIG. 29. […] PC-3 cells (1×10^6 cells, in a final volume of 0.1 ml PBS) were injected subcutaneously in the right flank of Balb c nude mice. After tumor formation (about 100 mm^3), nude mice were treated (iv) with vehicle control (0.1 ml normal saline), and DRA9S (40 mg/kg, 0.1 ml volume) everyday 5 days per week throughout the duration of the experiment. Tumor volume was calculated using the equation: (volume=length×width×depth×0.5236 mm^3). […]
PC-3 cells (2×10^6 cells, in a final volume of 0.1 ml) were injected subcutaneously in the right flank of Balb c nude mice. […] Tumor volume was calculated using the equation: (volume=length×width×depth×0.5236 mm^3). […]
PC-3 cells (1×10^6 cells, in a final volume of 0.1 ml PBS) were injected subcutaneously in the right flank of Balb c nude mice. […] Tumor volume was calculated using the equation: (volume=length×width×depth×0.5236 mm^3). […]

For a further data set, the system named is normal human hepatocytes. Put plainly: XTT cell viability, normal hepatocytes. The data set is classed as cell-based. Conditions: 0, 1, 3, 5 and 10 μM, 72 h. The method, then: FIGS. 59 A, B & C. DRAs has no effect on cell viability of normal human hepatocytes. Normal human hepatocytes were incubated with various concentrations of DRA11 (0, 1, 3, 5 and 10 μM) (FIG. 59A), DRA9S (0, 1, 3, 5 and 10 μM) (FIG. 59B), and DRA9 (0, 1, 3, 5 and 10 μM) (FIG. 59C) for 72 h. At the end of incubation period, cell viability was measured by XTT assay.
as §3

In the case of `CCOc1cc(Br)c(Br)c(/C=N/c2cccc(C(=O)O)c2C)c1O` [DRA9S], the “effect on cell viability in PrECs” value in data set [1] is recorded as “no effect”. Besides, the “effect on cell viability in HMECs” value in data set [2] is given as “no effect”. In addition, the “effect of NFκB inhibitor MG132 on the inhibitory effect on cell viability” value in data set [3] is reported as “enhances the inhibitory effects”. Besides, in data set [4], the “growth of xenografted PC-3 tumors (tumor volume)” value is given as “inhibits growth”. The “effect on cell viability of normal human hepatocytes” value in the data set with normal human hepatocytes is given as “no effect”.
Take `CCOc1cc(Br)c(Br)c(/C=N/c2cccc(C(=O)O)c2)c1O` [DRA9]: the “effect on cell viability in PrECs” value in data set [1] is on record as “no effect”. For the same compound, the “effect on cell viability in HMECs” value in data set [2] was “no effect”. Further, the “effect of NFκB inhibitor MG132 on the inhibitory effect on cell viability” value in data set [3] was “enhances the inhibitory effects”. Moreover, the “effect of pan caspase inhibitor (z-VAD-fmk) on the inhibitory effect on cell viability” value in data set [3] (z-VAD-fmk 25 μM 2 h pretreatment) is on record as “blocks the inhibitory effects”. Besides, in the data set with normal human hepatocytes, the “effect on cell viability of normal human hepatocytes” value was “no effect”.
